From US20240173440A1, “HIGH PURITY COPPER RADIOPHARMACEUTICAL COMPOSITIONS AND DIAGNOSTIC AND THERAPEUTIC USES THEREOF” (Nuclidium AG, priority 2022, published 2024)
Read-outs that look alike come from different tables or passages of the source.

Experiments:
[1] = Pharmacokinetics (biodistribution 1-24 h) in non-tumor bearing mice; format: in vivo; conditions: for tissue uptake at 1 h / tissue uptake at 4 h / tissue uptake at 12 h / tissue uptake at 24 h: female, BALB/c, mouse, 200 umol, total radioactivity; for tissue uptake at 1 h: 1 hour after injection; for tissue uptake at 1 h / tissue uptake at 4 h: ^61Cu; for tissue uptake at 4 h: 4 hours after injection; for tissue uptake at 12 h: 12 hours after injection; for tissue uptake at 12 h / tissue uptake at 24 h: ^64Cu; for tissue uptake at 24 h: 24 hours after injection
Description: The biodistribution at the investigate time points was performed as described in the Example 9. The data were combined with the results obtained from the groups of xenografts at 1 hour and 4 hours p.i., as the biodistribution in nude mice was the same as in the healthy mice. The results were expressed as described in the Example 10.

[2] = Lipophilicity, log D by shake-flask method (1-octanol/PBS pH 7.4); format: physicochemical; conditions: Table 17, mean ± SD
Description: The radiotracer (1 μM) was added to a 50:50 pre-saturated mixture of 1-octanol and phosphate buffered saline (PBSpH 7.4). The solution was vortexed for 30 min and then centrifuged at 3,000 rpm to achieve a phase separation. Aliquots from each phase were collected and measured in a gamma-counter. The distribution coefficient was calculated as the average of the logarithmic values of the ratio between the radioactivity in the organic and the PBS phase.
Table 17. Lipophilicity expressed as the log distribution coefficient D (log D(Octanol/PBS pH7.4)) of ^61Cu-radiotracers versus ^68Ga-radiotracers (reference radiotracers).
In a pre-lubricated Eppendorf tube, a pre-saturated mixture of 500 μL of 1-octanol and 500 μL of PBS pH 7.4 (phosphate-buffered saline) were added. An aliquot of […] in 10 μL of the radioligand was added to this mixture, shaken for 30 min, and then centrifuged at 3000 rcf for 10 min to achieve phase separation. Aliquots of 100 μL were removed from the 1-octanol and from the PBS phases, and the activity was measured in a […]. The partition coefficient was calculated as the average log ratio value of the radioactivity in the organic fraction and PBS fraction.

in vivo = conditions: athymic nude Foxn1+Foxn1+, mouse, iv, 200 umol, total radioactivity
Description: The tumors were allowed to grow for 1-3 weeks before commencement of the experiments.
(§1) The mice were randomly distributed in groups and euthanized at 1 and at 4 hours post-injection. The organs of interest were collected, rinsed, blotted, weighed and counted in a gamma counter. The results are expressed as percentage of injected activity per gram (% IA/g), representing the mean±standard deviation of n=4-8 mice per group and they were obtained by extrapolation from counts of an aliquot taken from the injected solution as standard.
The mice were randomly distributed in groups, injected with the radiotracer under investigation and euthanized at 1 and at 4 hours post-injection of the radiotracers under investigation. The organs of interest were collected, rinsed, blotted, weighed and counted in a gamma counter. The results are expressed as percentage of injected activity per gram (% IA/g), representing the mean±standard deviation of all mice per group and they were obtained by extrapolation from counts of an aliquot taken from the injected solution as standard.
The mice were randomly distributed in groups and euthanized at 4 hours post-injection. The organs of interest were collected, rinsed, blotted, weighed, and their respective radioactivity was counted in a gamma counter.

LNCaP xenografts = assay: Quantitative biodistribution in LNCaP xenografted mice; format: in vivo; conditions: for Biodistribution Adrenal / Biodistribution Blood / Biodistribution Bone / Biodistribution Heart / Biodistribution Intestine / Biodistribution Kidney / Biodistribution LNCaP-tumor / Biodistribution Liver / Biodistribution Lung / Biodistribution Muscle / Biodistribution Pancreas / Biodistribution Salivary gland / Biodistribution Spleen / Biodistribution Stomach / Ratio Tumor/Blood / Ratio Tumor/Kidney / Ratio Tumor/Liver / Ratio Tumor/Muscles: LNCap xenograft mice
Description: as §1
The biodistribution of the [^61Cu]Cu-NODAGA radiotracers was compared with the reference compounds used in patients under identical experimental conditions. The mice were randomly distributed in groups, injected with the radiotracer under investigation and euthanized at 1 and at 4 hours post-injection of the radiotracers under investigation. The organs of interest were collected, rinsed, blotted, weighed and counted in a gamma counter. The results are expressed as percentage of injected activity per gram (% IA/g), representing the mean±standard deviation of all mice per group and they were obtained by extrapolation from counts of an aliquot taken from the injected solution as standard.

[3] = adrenal, read-out: Biodistribution Adrenal
[4] = blood, read-out: Biodistribution Blood
[5] = femur, read-out: Biodistribution Femur
[6] = heart, read-out: Biodistribution Heart
[7] = intestine, read-out: Biodistribution Intestine
[8] = kidneys, read-out: Biodistribution Kidneys
[9] = liver, read-out: Biodistribution Liver
[10] = lung, read-out: Biodistribution Lung
[11] = muscle, read-out: Biodistribution Muscles
[12] = pancreas, read-out: Biodistribution Pancreas
[13] = pituitary, read-out: Biodistribution Pituitary
[14] = spleen, read-out: Biodistribution Spleen
[15] = stomach, read-out: Biodistribution Stomach

For C[C@@H](O)[C@@H]1NC(=O)[C@H](CCCCN)NC(=O)[C@@H](Cc2c[nH]c3ccccc23)NC(=O)[C@H](Cc2ccc(O)cc2)NC(=O)[C@@H](NC(=O)[C@@H](Cc2ccccc2)NC(=O)CCC(C(=O)O)N2CCN(CC(=O)O)CCN(CC(=O)O)CC2)CSSC[C@@H](C(=O)N[C@H](CO)[C@@H](C)O)NC1=O (single isomer, unassigned) [[^61/^64Cu]Cu-NODAGA-TOC, metal not drawn], the tissue uptake at 1 h [1, 3] was 1.06 ± 0.24 %ID/g, the tissue uptake at 4 h [1, 3] was 0.63 ± 0.22 %ID/g and the tissue uptake at 1 h [1, 4] was 0.24 ± 0.08 %ID/g. The tissue uptake at 4 h [1, 4] was 0.04 ± 0.02 %ID/g, the tissue uptake at 12 h [1, 4] was 0.04 ± 0.01 %ID/g and the tissue uptake at 24 h [1, 4] was 0.03 %ID/g. It also gave a tissue uptake at 1 h [1, 5] of 0.45 ± 0.14 %ID/g, a tissue uptake at 4 h [1, 5] of 0.28 ± 0.11 %ID/g and a tissue uptake at 24 h [1, 5] of 0.06 ± 0.01 %ID/g. It also gave a tissue uptake at 1 h [1, 6] of 0.17 ± 0.03 %ID/g, a tissue uptake at 4 h [1, 6] of 0.07 ± 0.02 %ID/g and a tissue uptake at 12 h [1, 6] of 0.09 ± 0.02 %ID/g. The tissue uptake at 24 h [1, 6] was 0.07 ± 0.02 %ID/g, the tissue uptake at 1 h [1, 7] was 0.96 ± 0.12 %ID/g and the tissue uptake at 4 h [1, 7] was 0.69 ± 0.19 %ID/g. For the same molecule, the tissue uptake at 1 h [1, 8] was 17.2 ± 4.46 %ID/g, the tissue uptake at 4 h [1, 8] was 7.64 ± 3.85 %ID/g and the tissue uptake at 1 h [1, 9] was 0.35 ± 0.08 %ID/g. For the same molecule, the tissue uptake at 4 h [1, 9] was 0.28 ± 0.08 %ID/g, the tissue uptake at 1 h [1, 10] was 1.07 ± 0.17 %ID/g and the tissue uptake at 4 h [1, 10] was 0.5 ± 0.24 %ID/g. The tissue uptake at 1 h [1, 11] was 0.16 ± 0.05 %ID/g, the tissue uptake at 4 h [1, 11] was 0.07 ± 0.03 %ID/g and the tissue uptake at 12 h [1, 11] was 0.02 ± 0.01 %ID/g. It also gave a tissue uptake at 24 h [1, 11] of 0.01 %ID/g, a tissue uptake at 1 h [1, 12] of 2.71 ± 0.4 %ID/g and a tissue uptake at 4 h [1, 12] of 0.6 ± 0.19 %ID/g. For the same molecule, the tissue uptake at 24 h [1, 12] was 0.07 ± 0.01 %ID/g, the tissue uptake at 1 h [1, 13] was 3.39 ± 1.11 %ID/g and the tissue uptake at 4 h [1, 13] was 2.71 ± 1.84 %ID/g. For the same molecule, the tissue uptake at 1 h [1, 14] was 0.23 ± 0.04 %ID/g, the tissue uptake at 4 h [1, 14] was 0.1 ± 0.03 %ID/g and the tissue uptake at 12 h [1, 14] was 0.1 ± 0.02 %ID/g. The tissue uptake at 24 h [1, 14] was 0.07 ± 0.02 %ID/g, the tissue uptake at 1 h [1, 15] was 2.62 ± 0.48 %ID/g and the tissue uptake at 4 h [1, 15] was 1.35 ± 0.26 %ID/g. The blood clearance ([1]; healthy mice, 1 to 24 hours after injection) was “very fast blood clearance”.

Molecule C[C@@H](O)[C@@H]1NC(=O)[C@H](CCCCN)NC(=O)[C@@H](Cc2c[nH]c3ccccc23)NC(=O)[C@H](Cc2ccc(O)cc2)NC(=O)[C@@H](NC(=O)[C@@H](Cc2ccccc2)NC(=O)CCC(C(=O)O)N2CCN(CC(=O)O)CCN(CC(=O)O)CC2)CSSC[C@@H](C(=O)N[C@H](CO)[C@@H](C)O)NC1=O (single isomer, unassigned) [[^68Ga]Ga-NODAGA-TOC, metal not drawn] has a logD ([2]; pH 7.4, shake-flask, read-out: log D(O/PBS pH 7.4)) of -2.48 ± 0.3.

In the case of C[C@@H](O)[C@@H]1NC(=O)[C@H](CCCCN)NC(=O)[C@@H](Cc2c[nH]c3ccccc23)NC(=O)[C@H](Cc2ccc(O)cc2)NC(=O)[C@@H](NC(=O)[C@@H](Cc2ccccc2)NC(=O)CCC(C(=O)O)N2CCN(CC(=O)O)CCN(CC(=O)O)CC2)CSSC[C@@H](C(=O)N[C@H](CO)[C@@H](C)O)NC1=O (single isomer, unassigned) [[^61Cu]Cu-NODAGA-TOC, metal not drawn], the tissue uptake at 1 h (in vivo; Biodistribution HEK-SST2) is reported as 8.88 ± 3.19 %ID/g and the tissue uptake at 1 h (in vivo; Biodistribution Kidney) is reported as 12.5 ± 2.25 %ID/g.

For O=C(O)CC[C@H](NC(=O)N[C@@H](CCCCNC(=O)[C@H](Cc1ccc2ccccc2c1)NC(=O)c1ccc(CNC(=O)[C@H](CCC(=O)O)NC(=O)[C@H](CCC(=O)O)NC(=O)c2ccc([18F])nc2)cc1)C(=O)O)C(=O)O [[^18F]PSMA-1007], the “log D(O/PBS pH 7.4)” value ([2]; shake-flask) was −3.02 ± 0.11, the tumor uptake (LNCaP xenografts; 4h p.i., LNCaP xenograft mice, comparison with reference radiotracer, p=0.0145) was 6.28±2.19 % IA/g and the “Biodistribution Adrenal” value (LNCaP xenografts; 1 h after injection) was 7.18 ± 2.20 % IA/g. The “Biodistribution Blood” value (LNCaP xenografts; 1 h after injection) was 0.41 ± 0.11 % IA/g, the “Biodistribution Bone” value (LNCaP xenografts; 1 h after injection) was 0.94 ± 0.13 % IA/g and the “Biodistribution Heart” value (LNCaP xenografts; 1 h after injection) was 1.25 ± 0.29 % IA/g. For the same molecule, the “Biodistribution Intestine” value (LNCaP xenografts; 1 h after injection) was 1.04 ± 0.33 % IA/g, the “Biodistribution Kidney” value (LNCaP xenografts; 1 h after injection) was 100 ± 17 % IA/g and the “Biodistribution LNCaP-tumor” value (LNCaP xenografts; 1 h after injection) was 9.70 ± 2.57 % IA/g. The “Biodistribution Liver” value (LNCaP xenografts; 1 h after injection) was 0.93 ± 0.26 % IA/g, the “Biodistribution Lung” value (LNCaP xenografts; 1 h after injection) was 2.08 ± 0.24 % IA/g and the “Biodistribution Muscle” value (LNCaP xenografts; 1 h after injection) was 0.53 ± 0.09 % IA/g. The “Biodistribution Pancreas” value (LNCaP xenografts; 1 h after injection) was 1.32 ± 0.58 % IA/g, the “Biodistribution Salivary gland” value (LNCaP xenografts; 1 h after injection) was 2.54 ± 0.72 % IA/g and the “Biodistribution Spleen” value (LNCaP xenografts; 1 h after injection) was 11.0 ± 1.1 % IA/g. For the same molecule, the “Biodistribution Stomach” value (LNCaP xenografts; 1 h after injection) was 0.75 ± 0.15 % IA/g, the “Ratio Tumor/Blood” value (LNCaP xenografts; 1 h after injection) was 25.8 ± 11.5 and the “Ratio Tumor/Kidney” value (LNCaP xenografts; 1 h after injection) was 0.10 ± 0.03. The “Ratio Tumor/Liver” value (LNCaP xenografts; 1 h after injection) was 11.3 ± 4.5, the “Ratio Tumor/Muscles” value (LNCaP xenografts; 1 h after injection) was 19.2 ± 6.5 and the “Biodistribution Adrenal” value (LNCaP xenografts; 4 h after injection) was 8.03 ± 2.66 % IA/g. For the same molecule, the “Biodistribution Blood” value (LNCaP xenografts; 4 h after injection) was 0.17 ± 0.04 % IA/g, the “Biodistribution Bone” value (LNCaP xenografts; 4 h after injection) was 0.62 ± 0.11 % IA/g and the “Biodistribution Heart” value (LNCaP xenografts; 4 h after injection) was 0.53 ± 0.23 % IA/g. For the same molecule, the “Biodistribution Intestine” value (LNCaP xenografts; 4 h after injection) was 0.43 ± 0.22 % IA/g, the “Biodistribution Kidney” value (LNCaP xenografts; 4 h after injection) was 132 ± 9 % IA/g and the “Biodistribution LNCaP-tumor” value (LNCaP xenografts; 4 h after injection) was 6.28 ± 2.19 % IA/g. The “Biodistribution Liver” value (LNCaP xenografts; 4 h after injection) was 0.32 ± 0.16 % IA/g, the “Biodistribution Lung” value (LNCaP xenografts; 4 h after injection) was 1.61 ± 0.58 % IA/g and the “Biodistribution Muscle” value (LNCaP xenografts; 4 h after injection) was 0.27 ± 0.11 % IA/g. The “Biodistribution Pancreas” value (LNCaP xenografts; 4 h after injection) was 0.80 ± 0.32 % IA/g, the “Biodistribution Salivary gland” value (LNCaP xenografts; 4 h after injection) was 1.62 ± 0.43 % IA/g and the “Biodistribution Spleen” value (LNCaP xenografts; 4 h after injection) was 8.33 ± 2.11 % IA/g. The “Biodistribution Stomach” value (LNCaP xenografts; 4 h after injection) was 0.47 ± 0.16 % IA/g, the “Ratio Tumor/Blood” value (LNCaP xenografts; 4 h after injection) was 42.7 ± 16.4 and the “Ratio Tumor/Kidney” value (LNCaP xenografts; 4 h after injection) was 0.04 ± 0.01. For the same molecule, the “Ratio Tumor/Liver” value (LNCaP xenografts; 4 h after injection) was 18.4 ± 8.5 and the “Ratio Tumor/Muscles” value (LNCaP xenografts; 4 h after injection) was 20.1 ± 2.5.
